Results on 13 compounds are retold here after US20230150974A1 (Foghorn Therapeutics Inc., priority 2020, published 2023).

The target of test [1] is T1, HiBiT-BRM (Homo sapiens, UniProt P51531).
T1 construct: expressed in transfected cells
Nature of the test: HiBiT-BRM cell-based degradation assay (Nano-Glo HiBiT Lytic Detection). To be noted: HeLa cells expressing HiBiT-BRM, 24 h; for DC50: read-out: BRM HiBit Degradation IC50. An outline of the steps:
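Luminescence from HiBiT–LgBiT complementation in lysates of a stable HiBiT-BRM HeLa line measured after 24 h compound exposure. Degradation expressed as percent relative to DMSO-treated cells and cells given 2 μM of a known BRM/BRG1 degrader.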
(With HiBiT, luminescence reflects the tagged protein that the partner subunit can reach.)

For test [2], the target named is T2, HiBit-BRG1 (Homo sapiens, UniProt P51532).
T2 construct: expressed in transfected cells
T2 sequence (P51532 whole entry): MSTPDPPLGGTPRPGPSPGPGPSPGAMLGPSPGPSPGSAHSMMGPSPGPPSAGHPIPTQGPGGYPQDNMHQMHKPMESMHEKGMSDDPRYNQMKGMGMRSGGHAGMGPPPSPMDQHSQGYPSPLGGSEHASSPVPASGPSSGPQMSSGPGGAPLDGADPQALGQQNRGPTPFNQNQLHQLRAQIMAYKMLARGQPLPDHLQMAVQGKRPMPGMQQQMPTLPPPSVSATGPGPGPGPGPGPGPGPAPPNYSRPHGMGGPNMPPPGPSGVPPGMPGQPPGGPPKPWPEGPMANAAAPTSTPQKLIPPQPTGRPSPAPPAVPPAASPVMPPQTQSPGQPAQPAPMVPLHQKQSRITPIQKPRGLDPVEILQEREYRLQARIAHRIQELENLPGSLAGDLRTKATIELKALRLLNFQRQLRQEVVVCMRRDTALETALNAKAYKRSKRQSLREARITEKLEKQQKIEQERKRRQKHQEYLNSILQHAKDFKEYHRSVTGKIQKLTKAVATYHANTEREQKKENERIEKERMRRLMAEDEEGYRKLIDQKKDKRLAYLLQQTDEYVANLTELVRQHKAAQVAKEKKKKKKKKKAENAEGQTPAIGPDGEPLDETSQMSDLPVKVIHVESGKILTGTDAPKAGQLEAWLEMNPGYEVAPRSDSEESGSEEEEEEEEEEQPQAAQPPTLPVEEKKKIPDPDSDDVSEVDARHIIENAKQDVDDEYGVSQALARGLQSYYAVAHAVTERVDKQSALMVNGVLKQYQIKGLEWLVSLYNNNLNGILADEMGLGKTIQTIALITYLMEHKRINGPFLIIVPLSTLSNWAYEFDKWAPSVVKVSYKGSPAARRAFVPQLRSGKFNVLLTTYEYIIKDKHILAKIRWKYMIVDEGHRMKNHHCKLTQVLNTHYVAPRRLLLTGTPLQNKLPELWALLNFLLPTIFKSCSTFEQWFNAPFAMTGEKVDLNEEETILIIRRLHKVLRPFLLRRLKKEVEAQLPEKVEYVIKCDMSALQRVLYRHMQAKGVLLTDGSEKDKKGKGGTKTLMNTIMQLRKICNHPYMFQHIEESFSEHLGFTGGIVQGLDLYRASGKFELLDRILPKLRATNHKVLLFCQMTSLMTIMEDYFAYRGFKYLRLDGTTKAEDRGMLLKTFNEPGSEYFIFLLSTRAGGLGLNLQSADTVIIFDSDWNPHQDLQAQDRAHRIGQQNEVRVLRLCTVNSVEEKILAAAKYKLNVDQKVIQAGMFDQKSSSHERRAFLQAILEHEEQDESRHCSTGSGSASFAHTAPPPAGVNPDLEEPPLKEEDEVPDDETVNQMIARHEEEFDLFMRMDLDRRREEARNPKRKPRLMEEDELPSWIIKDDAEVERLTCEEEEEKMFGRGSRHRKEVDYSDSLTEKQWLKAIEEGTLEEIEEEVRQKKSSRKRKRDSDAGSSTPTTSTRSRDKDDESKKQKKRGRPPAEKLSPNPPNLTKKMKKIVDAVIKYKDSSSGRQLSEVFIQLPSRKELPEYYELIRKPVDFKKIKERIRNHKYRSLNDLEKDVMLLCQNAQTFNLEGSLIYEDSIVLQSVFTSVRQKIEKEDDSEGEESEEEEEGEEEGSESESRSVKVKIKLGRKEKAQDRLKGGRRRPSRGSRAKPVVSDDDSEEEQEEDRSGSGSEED
Nature of the test: HiBit-BRG1 cell-based degradation assay (Nano-Glo HiBiT Lytic Detection). To be noted: HeLa cells expressing HiBit-BRG1 and LgBit, 24 h; for DC50: read-out: BRG1 HiBit Degradation IC50; for Dmax: read-out: BRG1 HiBit Degradation Maximum (%). An outline of the steps:
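Luminescence from Nano-Glo HiBiT lytic detection, read after 24 h compound exposure, scored degradation in a stable HeLa HiBiT-BRG1/LgBit line seeded at 5000 cells/well. DMSO wells defined 0% and 2 μM known BRM/BRG1 degrader wells defined full degradation.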

T1 sequence (P51531 whole entry): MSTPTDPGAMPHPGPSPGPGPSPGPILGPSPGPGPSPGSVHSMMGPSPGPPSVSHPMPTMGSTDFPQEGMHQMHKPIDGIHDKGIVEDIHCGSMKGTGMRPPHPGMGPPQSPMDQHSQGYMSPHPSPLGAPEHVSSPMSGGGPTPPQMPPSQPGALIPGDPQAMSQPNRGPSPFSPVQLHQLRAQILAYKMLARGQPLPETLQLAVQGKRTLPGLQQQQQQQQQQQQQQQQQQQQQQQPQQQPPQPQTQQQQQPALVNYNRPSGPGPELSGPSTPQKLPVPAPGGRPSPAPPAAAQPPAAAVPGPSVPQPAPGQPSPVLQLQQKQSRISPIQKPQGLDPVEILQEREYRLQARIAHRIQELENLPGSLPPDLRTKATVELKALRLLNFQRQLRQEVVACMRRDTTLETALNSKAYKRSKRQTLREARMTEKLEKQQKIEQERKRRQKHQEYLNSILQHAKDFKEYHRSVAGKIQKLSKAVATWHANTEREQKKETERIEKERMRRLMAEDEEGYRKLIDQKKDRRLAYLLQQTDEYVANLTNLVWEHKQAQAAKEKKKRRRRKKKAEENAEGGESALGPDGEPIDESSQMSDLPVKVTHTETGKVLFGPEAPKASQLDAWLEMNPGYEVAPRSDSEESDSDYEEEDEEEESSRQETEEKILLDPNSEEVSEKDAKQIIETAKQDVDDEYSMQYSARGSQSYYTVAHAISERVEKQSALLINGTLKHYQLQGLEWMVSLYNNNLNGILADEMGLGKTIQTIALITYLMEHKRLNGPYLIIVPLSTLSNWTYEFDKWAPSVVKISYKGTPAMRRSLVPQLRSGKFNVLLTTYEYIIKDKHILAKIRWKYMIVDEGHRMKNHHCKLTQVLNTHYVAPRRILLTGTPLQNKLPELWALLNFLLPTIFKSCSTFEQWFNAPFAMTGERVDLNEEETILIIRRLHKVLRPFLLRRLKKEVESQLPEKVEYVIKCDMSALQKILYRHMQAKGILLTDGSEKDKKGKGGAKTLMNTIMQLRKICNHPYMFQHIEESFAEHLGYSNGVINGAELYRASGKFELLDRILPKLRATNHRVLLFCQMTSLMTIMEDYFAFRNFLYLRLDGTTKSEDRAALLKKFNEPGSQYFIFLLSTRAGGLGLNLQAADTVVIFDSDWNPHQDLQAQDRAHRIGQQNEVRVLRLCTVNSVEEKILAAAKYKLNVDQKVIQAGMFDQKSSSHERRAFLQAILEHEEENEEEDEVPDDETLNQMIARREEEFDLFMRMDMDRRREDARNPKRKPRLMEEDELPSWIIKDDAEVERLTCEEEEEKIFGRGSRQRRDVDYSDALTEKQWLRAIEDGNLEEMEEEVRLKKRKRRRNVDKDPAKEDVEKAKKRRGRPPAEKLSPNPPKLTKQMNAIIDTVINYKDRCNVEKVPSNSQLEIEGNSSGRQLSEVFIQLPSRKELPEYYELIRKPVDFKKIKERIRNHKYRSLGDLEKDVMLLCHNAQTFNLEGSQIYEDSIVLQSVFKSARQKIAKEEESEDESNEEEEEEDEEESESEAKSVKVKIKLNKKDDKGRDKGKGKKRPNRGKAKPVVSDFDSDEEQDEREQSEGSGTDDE

Turning to `Cc1ncsc1-c1ccc([C@H](C)NC(=O)[C@@H]2C[C@@H](O)CN2C(=O)[C@@H](c2cc(OCCN3CCC(C4CN(C(=O)c5ccc(CCOc6cc(-c7ccccc7O)nnc6N)cc5)C4)CC3)no2)C(C)C)cc1` [Compound 207, (2S,4R)-1-[(2R)-2-[3-[2-(4-[1-[4-(2-[[3-amino-6-(2-hydroxyphenyl)pyridazin-4-yl]oxy]ethyl)benzoyl]azetidin-3-yl]piperidin-1-yl)ethoxy]-1,2-oxazol-5-yl]-3-methylbutanoyl]-4-hydroxy-N-[(1S)-1-[4-(4-methyl-1,3-thiazol-5-yl)phenyl]ethyl]pyrrolidine-2-carboxamide], in test [1], the “BRM HiBit Degradation Maximum (%)” value is reported as “A (“A” indicates maximum degradation ≥75%)” and the DC50 was above 10 nM. In test [2], the DC50 is above 1000 nM and the Dmax was below 50%.

`Cc1ncsc1-c1ccc(CNC(=O)[C@@H]2C[C@@H](O)CN2C(=O)[C@@H](NC(=O)CCCCCCCCCNC(=O)CN2CCN(c3cc(-c4ccccc4O)nnc3N)CC2)C(C)(C)C)cc1` [Compound 102, (2S,4R)-1-[(2S)-2-[10-(2-[4-[3-amino-6-(2-hydroxyphenyl)pyridazin-4-yl]piperazin-1-yl]acetamido)decanamido]-3,3-dimethylbutanoyl]-4-hydroxy-N-[[4-(4-methyl-1,3-thiazol-5-yl)phenyl]methyl]pyrrolidine-2-carboxamide]: in test [1], the “BRM HiBit Degradation Maximum (%)” value was “A (“A” indicates maximum degradation ≥75%)” and the DC50 was above 100 nM. In addition, in test [2], the DC50 was above 1000 nM and the Dmax was below 50%.

Turning to `Nc1nnc(-c2ccccc2O)cc1N1CCN(C(=O)C2CC2CNC(=O)COc2cccc3c2C(=O)N(C2CCC(=O)NC2=O)C3=O)CC1` (centres unmarked) [Compound 77, N-[(2-[4-[3-amino-6-(2-hydroxyphenyl)pyridazin-4-yl]piperazine-1-carbonyl]cyclopropyl)methyl]-2-[[2-(2,6-dioxopiperidin-3-yl)-1,3-dioxoisoindol-4-yl]oxy]acetamide], in test [1], the “BRM HiBit Degradation Maximum (%)” value is on record as “C (“C” indicates maximum degradation <50%)” and the DC50 was above 1000 nM. Further, the DC50 in test [2] was above 1000 nM.

On to `Cc1ncsc1-c1ccc(CNC(=O)[C@@H]2C[C@@H](O)CN2C(=O)[C@@H](NC(=O)CCN2CCC(C(=O)NCc3ccc(CCOc4cc(-c5ccccc5O)nnc4N)cc3)CC2)C(C)(C)C)cc1` [Compound 180, N-(4-(2-((3-amino-6-(2-hydroxyphenyl)pyridazin-4-yl)oxy)ethyl)benzyl)-1-(3-(((S)-1-((2S,4R)-4-hydroxy-2-((4-(4-methylthiazol-5-yl)benzyl)carbamoyl)pyrrolidin-1-yl)-3,3-dimethyl-1-oxobutan-2-yl)amino)-3-oxopropyl)piperidine-4-carboxamide], for which, in test [1], the “BRM HiBit Degradation Maximum (%)” value is “B (“B” indicates maximum degradation ≥50%)” and the DC50 is above 1000 nM. For the same compound, in test [2], the DC50 was above 1000 nM and the Dmax was below 50%.

For the compound `Nc1nnc(-c2ccccc2O)cc1OCCc1ccc(CNC(=O)CCCCCCCCNc2ccc3c(c2)C(=O)N(C2CCC(=O)NC2=O)C3=O)cc1` (centres unmarked) [Compound 73, N-(4-(2-((3-amino-6-(2-hydroxyphenyl)pyridazin-4-yl)oxy)ethyl)benzyl)-9-((2-(2,6-dioxopiperidin-3-yl)-1,3-dioxoisoindolin-5-yl)amino)nonanamide], in test [1], the “BRM HiBit Degradation Maximum (%)” value was “C (“C” indicates maximum degradation <50%)” and the DC50 was above 1000 nM. In addition, in test [2], the DC50 is above 1000 nM and the Dmax was below 50%.

Turning to `Nc1nnc(-c2ccccc2O)cc1N1CCN(CC(=O)NCCCCCCCCNc2cccc3c2C(=O)N(C2CCC(=O)NC2=O)C3=O)CC1` (centres unmarked) [Compound 95, 2-(4-(3-amino-6-(2-hydroxyphenyl)pyridazin-4-yl)piperazin-1-yl)-N-(8-((2-(2,6-dioxopiperidin-3-yl)-1,3-dioxoisoindolin-4-yl)amino)octyl)acetamide], in test [1], the “BRM HiBit Degradation Maximum (%)” value was “C (“C” indicates maximum degradation <50%)” and the DC50 is above 1000 nM. In test [2], the DC50 was above 1000 nM and the Dmax was below 50%.

With `Cc1ncsc1-c1ccc(CNC(=O)[C@H]2C[C@H](O)CN2C(=O)[C@H](NC(=O)CCCCCNC(=O)c2ccc(CCOc3cc(-c4ccccc4O)nnc3N)cc2)C(C)(C)C)cc1` (stereo in doubt) [Compound 53, (2R,4S)-1-((R)-2-(6-(4-(2-((3-amino-6-(2-hydroxyphenyl)pyridazin-4-yl)oxy)ethyl)benzamido)hexanamido)-3,3-dimethylbutanoyl)-4-hydroxy-N-(4-(4-methylthiazol-5-yl)benzyl)pyrrolidine-2-carboxamide], in test [1], the “BRM HiBit Degradation Maximum (%)” value is “C (“C” indicates maximum degradation <50%)” and the DC50 was above 1000 nM. For the same compound, in test [2], the DC50 is above 1000 nM and the Dmax was below 50%.

As to `Cc1ncsc1-c1ccc(CNC(=O)[C@@H]2C[C@@H](O)CN2C(=O)[C@@H](NC(=O)COCCOCCOCC(=O)NCc2ccc(CCOc3cc(-c4ccccc4O)nnc3N)cc2)C(C)(C)C)cc1` [Compound 38, (2S,4R)-1-[(2S)-2-[2-(2-[2-[([[4-(2-[[3-amino-6-(2-hydroxyphenyl)pyridazin-4-yl]oxy]ethyl)phenyl]methyl]carbamoyl)methoxy]ethoxy]ethoxy)acetamido]-3,3-dimethylbutanoyl]-4-hydroxy-N-[[4-(4-methyl-1,3-thiazol-5-yl)phenyl]methyl]pyrrolidine-2-carboxamide], in test [1], the “BRM HiBit Degradation Maximum (%)” value was “B (“B” indicates maximum degradation ≥50%)” and the DC50 is above 1000 nM. Moreover, in test [2], the DC50 is above 1000 nM and the Dmax was below 50%.

On to `Cc1ncsc1-c1ccc(CNC(=O)[C@@H]2C[C@@H](O)CN2C(=O)[C@@H](NC(=O)CCCCCCCCCNC(=O)c2ccc(CCOc3cc(-c4ccccc4O)nnc3N)cc2)C(C)(C)C)cc1` [Compound 47, (2S,4R)-1-[(2S)-2-(10-[[4-(2-[[3-amino-6-(2-hydroxyphenyl)pyridazin-4-yl]oxy]ethyl)phenyl]formamido]decanamido)-3,3-dimethylbutanoyl]-4-hydroxy-N-[[4-(4-methyl-1,3-thiazol-5-yl)phenyl]methyl]pyrrolidine-2-carboxamide], for which, in test [1], the “BRM HiBit Degradation Maximum (%)” value is “B (“B” indicates maximum degradation ≥50%)” and the DC50 is above 100 nM. Besides, in test [2], the DC50 was above 1000 nM and the Dmax is below 50%.

Consider `Cc1ncsc1-c1ccc(CNC(=O)[C@@H]2C[C@@H](O)CN2C(=O)[C@@H](NC(=O)CCCOCCOCCNC(=O)c2ccc(CCOc3cc(-c4ccccc4O)nnc3N)cc2)C(C)(C)C)cc1` [Compound 24, (2S,4R)-1-[(2S)-2-[4-[2-(2-[[4-(2-[[3-amino-6-(2-hydroxyphenyl)pyridazin-4-yl]oxy]ethyl)phenyl]formamido]ethoxy)ethoxy]butanamido]-3,3-dimethylbutanoyl]-4-hydroxy-N-[[4-(4-methyl-1,3-thiazol-5-yl)phenyl]methyl]pyrrolidine-2-carboxamide], for which, in test [1], the “BRM HiBit Degradation Maximum (%)” value is listed as “C (“C” indicates maximum degradation <50%)” and the DC50 was above 1000 nM. In test [2], the DC50 is above 1000 nM and the Dmax was below 50%.

In the case of `Cc1ncsc1-c1ccc([C@H](C)NC(=O)[C@@H]2C[C@@H](O)CN2C(=O)[C@@H](NC(=O)CCCCCCCCCCCCC(=O)NCc2ccc(CCOc3cc(-c4ccccc4O)nnc3N)cc2)C(C)(C)C)cc1` [Compound 248, N1-(4-(2-((3-amino-6-(2-hydroxyphenyl)pyridazin-4-yl)oxy)ethyl)benzyl)-N14-((S)-1-((2S,4R)-4-hydroxy-2-(((S)-1-(4-(4-methylthiazol-5-yl)phenyl)ethyl)carbamoyl)pyrrolidin-1-yl)-3,3-dimethyl-1-oxobutan-2-yl)tetradecanediamide], in test [1], the “BRM HiBit Degradation Maximum (%)” value is “A (“A” indicates maximum degradation ≥75%)” and the DC50 is above 10 nM. In test [2], the DC50 is above 1000 nM and the Dmax was below 50%.

Turning to `Cc1ncsc1-c1ccc(CNC(=O)[C@@H]2C[C@@H](O)CN2C(=O)[C@@H](NC(=O)CCN2CCC(CC(=O)NCc3ccc(CCOc4cc(-c5ccccc5O)nnc4N)cc3)CC2)C(C)(C)C)cc1` [Compound 181, (2S,4R)-1-((S)-2-(3-(4-(2-((4-(2-((3-amino-6-(2-hydroxyphenyl)pyridazin-4-yl)oxy)ethyl)benzyl)amino)-2-oxoethyl)piperidin-1-yl)propanamido)-3,3-dimethylbutanoyl)-4-hydroxy-N-(4-(4-methylthiazol-5-yl)benzyl)pyrrolidine-2-carboxamide], in test [1], the “BRM HiBit Degradation Maximum (%)” value is given as “C (“C” indicates maximum degradation <50%)” and the DC50 was above 1000 nM. Also, in test [2], the DC50 was above 1000 nM and the Dmax is below 50%.

For the compound `Nc1nnc(-c2ccccc2O)cc1OCCc1ccc(CNCCCCCOc2cccc3c2C(=O)N(C2CCC(=O)NC2=O)C3=O)cc1` (centres unmarked) [Compound 9, 4-[[5-([[4-(2-[[3-amino-6-(2-hydroxyphenyl)pyridazin-4-yl]oxy]ethyl)phenyl]methyl]amino)pentyl]oxy]-2-(2,6-dioxopiperidin-3-yl)isoindole-1,3-dione], in test [1], the “BRM HiBit Degradation Maximum (%)” value is “A (“A” indicates maximum degradation ≥75%)” and the DC50 is above 100 nM. Besides, the DC50 in test [2] is above 1000 nM.
